Measured values reported in publication PMC5382548 (Scientific Reports, 2015).

How the values were obtained:
MCF7 (breast) = assay: SRB short-term cytotoxicity assay, MCF7; format: cell-based; details: Homo sapiens, 96 h
Protocol: Short-term anti-proliferative assays were carried out by two different assays using a panel of human cancer and non-malignant human cell lines. […] The transformed human embryonic kidney cell line HEK293T (wt KRAS) was sensitive to all tested drugs, including TMPyP4, a cationic porphyrin established as a G4 ligand, as well as the anticancer drug 5-fluorouracil (5-FU).
Human cell lines, breast carcinoma (MCF7), lung carcinoma (A549), pancreatic cancer (MIA PaCa2, Panc-1), immortalised telomerase-negative human lung fibroblast (ALT) and normal human lung fibroblast (WI-38), were all purchased from American Type Cell Culture (ATCC). Cell lines were maintained in appropriate medium supplemented with 10% fetal bovine serum (Invitrogen, UK), 2 mM L-glutamine (Invitrogen, Netherlands), and other components as specified by the suppliers. All cell lines were maintained at 37°C, 5% CO2, and routinely passaged. Short-term growth inhibition was measured using the SRB assay as described previously[43] (additional details described in Supplementary Information). […]
Sulforhodamine B (SRB) short-term cytotoxicity assay
Cells were seeded at appropriate densities into the wells of 96 well plates in their corresponding medium and incubated overnight to allow the cells to attach. Subsequently cells were exposed to various concentrations of freshly made solutions of drugs and incubated for 96 h. The cells were subsequently fixed with ice-cold trichloacetic acid (TCA) (10%, w/v) for 30 min and stained with 0.4% SRB dissolved in 1% acetic acid for 15 min.
All incubations were carried out at room temperature except for TCA fixation, which was at 4 °C. […]
After electrophoretic transfer onto nitrocellulose membranes, immunoblots were blocked with 5% milk solution, and next incubated overnight at 4 °C with primary mouse monoclonal antibody reactive to KRAS/p53 (#sc-30/sc-126; Santa Cruz Biotechnology Inc., Santa Cruz, CA, USA). […] Steady-state protein levels were expressed as mean ±SEM from at least three independent experiments.

[1] = test system: T-loop, a 26-mer hairpin double-stranded DNA; assay: FRET melting assay, T-loop hairpin ds-DNA; format: binding; details: ds-DNA 0.2 μM, ligand 1 μM, K-cacodylate buffer pH 7.4, 60 mM K+
Protocol: Fluorescence resonance energy transfer (FRET) studies with DNA sequences labelled at the 5′ and 3′ ends, were conducted to evaluate the G4 DNA stabilizing properties of IQcs (at 0.1 to 5 μM ligand concentrations). The G4-forming sequence KRAS21R[11], together with T-loop, a 26-mer hairpin double-stranded DNA (ds-DNA) sequence were used in the first screening assay. Reproducible IQc dose-dependent melting curves (Sup. Inf.; Figure S3) and stabilization temperature (ΔTm) values were obtained (Figure 2 and Table S5).
Figure 2 FRET stabilization temperatures (ΔTm) of KRAS21R G4 and hairpin ds-DNA (T-loop) at 0.2 μM, in K-cacodylate buffer (pH = 7.4, 60 mM K^+), stabilized by IQc derivatives and TMPyP4 at 1 μM. ^a) SD ≤ 0.2°C. TEXT PRINTED IN THE PICTURE: TMPyP4: ΔTm / °C ^a) (T-Loop): 16.0; ΔTm / °C ^a) (KRAS21R): 25.1 | 3e: ΔTm / °C ^a) (T-Loop): 6.5; ΔTm / °C ^a) (KRAS21R): 22.0 | 3d: ΔTm / °C ^a) (T-Loop): 5.6; ΔTm / °C ^a) (KRAS21R): 19.9 | 2d: ΔTm / °C ^a) (T-Loop): 6.1; ΔTm / °C ^a) (KRAS21R): 15.1 | 2a: ΔTm / °C ^a) (T-Loop): 1.5; ΔTm / °C ^a) (KRAS21R): 4.4 […]
Oligonucleotide sequences were purchased from Eurofins MWG Synthesis GmbH, Germany or STAB VIDA Genomics Lab, Caparica, Lisbon, Portugal. The labelled oligonucleotides used in the FRET assays had attached the donor fluorophore FAM (6-carboxyfluorescein) and the acceptor fluorophore TAMRA (6-carboxytetramethylrhodamine): KRAS21R: 5′-FAM-[…]-TAMRA-3′; KRAS32R: 5′-FAM-[…]-TAMRA-3′; UTR-1: 5′-FAM-GCGGCGGCGGAGG-TAMRA-3′; UTR-2: 5′-FAM-[…]-TAMRA-3; T-Loop:5′-FAM-[…]-TAMRA-3′; F21T: 5′-FAM-[…]-TAMRA-3′. Non-labelled oligonucleotides were used in FRET competition assays and in the spectroscopic studies: ds26: - d(5′-CAATCGGATCGAATT CGATCCGATTG-3′); KRAS21R: 5′-[…]-3′; HT21: 5′-[…]-3′. Each oligonucleotide was initially diluted to a storage solution at 100 μM in nuclease-free water (not DEPC-treated), purchased from Ambion Applied Biosystems UK.
The ability of indolo[3,2-c]quinolines to stabilize DNA sequences was investigated using a Fluorescence Resonance Energy Transfer (FRET) assay as reported elsewhere.
Figure S3 (cont.)| Concentration-dependent (0.1, 0.5, 1, 2, 3, 4 and 5 µM) FRET melting profiles of G4 structures and T-loop DNA with indolo[3,2-c]quinoline derivatives 1a, 2a-g and 3d-j in K-cacodylate buffer (pH 7.4, 60 mM K+). […]
Table S5 | FRET stabilization temperatures (ΔTm) of G4s sequences and ds-DNA (0.2 µM) stabilized by […]

SMILES | IC50 (MCF7 (breast)) [µM] | FRET stabilization temperature ΔTm (T-loop) [1] [°C]
CCN(CC)CCCNc1ccc2c(c1)[nH]c1c2c[n+](C)c2ccc(NCCCN(CC)CC)cc12.[Cl-] [3e] | 11.4 | 6.5
CCN(CC)CCCNc1ccc2c(c1)c1[nH]c3ccccc3c1c[n+]2C [2d] | 2.4 | 6.1
C[n+]1ccc(-c2c3nc(c(-c4cc[n+](C)cc4)c4ccc([nH]4)c(-c4cc[n+](C)cc4)c4ccc([nH]4)c(-c4cc[n+](C)cc4)c4nc2C=C4)C=C3)cc1 [TMPyP4, reference compound] |  | 16.0
Cn1cc2c3ccccc3nc-2c2cc(Br)ccc21 [2a, 2-bromo-5-methyl-indolo[3,2-c]quinoline] | 2.88 | 1.5
CCN(CC)CCCNc1ccc2[nH]c3c(c[n+](C)c4ccc(NCCCN(CC)CC)cc34)c2c1.[Cl-] [3d] |  | 5.6
